# Results taken from patent US7560468B2, “Substituted 1,4,8-triazaspiro[4,5]decan-2-one compounds” (Gruenenthal GmbH, priority 2004, dated 2009).
# Tests used:
# NA transporter = experiment: Inhibition of noradrenalin uptake in synaptosomes; format: biochemical
# 5-HT transporter = target: T1, 5-HT transporter (Rattus norvegicus, UniProt P31652); experiment: Inhibition of 5-HT uptake in synaptosomes; format: biochemical; conditions: for inhibition at 1 µM: read-out: Uptake_5-HT, rat, 1 μM, % inhibition
# T1 construct: from tissue; host or cells: rat brain synaptosomes (marrow/medulla and pons), P2 fraction
# [1] = tested on: batrachotoxin (BTX) binding site of the sodium channel; experiment: Affinity to the batrachotoxin (BTX) binding site of the sodium channel; conditions: rat cerebrocortex synaptosomes, [3H]-batrachotoxinin A20 α-benzoate 10 nM; test concentration not given
# T1 sequence (P31652 whole entry): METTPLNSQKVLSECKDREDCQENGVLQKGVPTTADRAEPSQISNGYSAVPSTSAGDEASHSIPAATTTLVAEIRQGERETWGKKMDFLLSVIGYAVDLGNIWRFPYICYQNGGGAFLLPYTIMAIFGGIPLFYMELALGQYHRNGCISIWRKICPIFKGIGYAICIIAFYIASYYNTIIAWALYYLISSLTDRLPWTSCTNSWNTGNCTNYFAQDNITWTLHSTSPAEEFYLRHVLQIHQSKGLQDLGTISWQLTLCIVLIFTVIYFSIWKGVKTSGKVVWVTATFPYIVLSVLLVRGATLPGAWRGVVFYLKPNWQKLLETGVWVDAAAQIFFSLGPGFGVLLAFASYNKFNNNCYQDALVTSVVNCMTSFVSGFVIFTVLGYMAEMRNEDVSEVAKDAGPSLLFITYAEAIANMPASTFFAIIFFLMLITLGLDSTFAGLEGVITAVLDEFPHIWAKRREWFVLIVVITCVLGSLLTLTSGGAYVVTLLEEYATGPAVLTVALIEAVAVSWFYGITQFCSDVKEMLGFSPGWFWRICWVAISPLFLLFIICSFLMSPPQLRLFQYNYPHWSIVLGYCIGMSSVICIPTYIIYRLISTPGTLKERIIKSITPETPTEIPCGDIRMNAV
Compound,"Uptake (NA), rat, 10 μM, % inhibition (NA transporter) [%]",inhibition at 1 µM (5-HT transporter) [%],BTX Inhibition [1],"Uptake_5-HT, rat, 1 μM, % inhibition (5-HT transporter) [%]"
"CN(C)S(=O)(=O)N1CCC2(CC1)NCC(=O)N2Cc1ccccc1 [Example 9, 1-Benzyl-2-oxo-1,4,8-triazaspiro[4,5]decan-8-sulfonic acid dimethylamide]",40,–,–,–
"CC(C)C1NC2(CCN(C(=S)Nc3ccccc3)CC2)N(Cc2ccccc2)C1=O (stereo not drawn) [Example 156, 1-Benzyl-3-isopropyl-2-oxo-1,4,8-triazaspiro[4,5]decan-8-thiocarboxylic acid benzolamide]",33,–,–,–
"CSCCC1NC2(CCN(C(=S)Nc3ccccc3C)CC2)N(Cc2ccc(F)cc2)C1=O (stereo not drawn) [Example 186, 1-(4-Fluorobenzyl)-3-(2-methylsulfanylethyl)-2-oxo-1,4,8-triazaspiro[4,5]decan-8-thiocarboxylic acid o-tolylamide]",–,55,52,–
"CSCCC1NC2(CCN(C(=S)Nc3cccc(C#N)c3)CC2)N(Cc2ccc(F)cc2)C1=O (stereo not drawn) [Example 192, 1-(4-Fluorobenzyl)-3-(2-methylsulfanylethyl)-2-oxo-1,4,8-triazaspiro[4,5]decan-8-thiocarboxylic acid (3-cyanobenzol)amide]",–,–,35,38
"CCOc1ccc(NC(=S)N2CCC3(CC2)NC(CCSC)C(=O)N3Cc2ccc(F)cc2)cc1 (stereo not drawn) [Example 200, 1-(4-Fluorobenzyl)-3-(2-methylsulfanylethyl)-2-oxo-1,4,8-triazaspiro[4,5]decan-8-thiocarboxylic acid (4-ethoxy-benzol)amide]",–,–,30,30
"CC(=O)c1cccc(NC(=S)N2CCC3(CC2)NC(Cc2ccccc2)C(=O)N3Cc2ccccc2F)c1 (stereo not drawn) [Example 201, 3-Benzyl-1-(2-fluorobenzyl)-2-oxo-1,4,8-triazaspiro[4,5]decan-8-thiocarboxylic acid (3-acetylbenzol)amide]",–,–,63,54
"CN1C(=O)C(Cc2ccccc2)NC12CCN(C(=O)NC1CCCCC1)CC2 (stereo not drawn) [Example 202, 3-Benzyl-1-methyl-2-oxo-1,4,8-triazaspiro[4,5]decan-8-carboxylic acid cyclohexylamide]",–,34,56,–
"CCCCN1C(=O)C(CCSC)NC12CCN(C(=O)Nc1ccccc1)CC2 (stereo not drawn) [Example 207, 1-Butyl-3-(2-methylsulfanylethyl)-2-oxo-1,4,8-triazaspiro[4,5]decan-8-carboxylic acid benzolamide]",–,–,35,39
"CCCCN1C(=O)C(CCSC)NC12CCN(C(=O)Nc1ccc(OCC)cc1)CC2 (stereo not drawn) [Example 221, 1-Butyl-3-(2-methylsulfanylethyl)-2-oxo-1,4,8-triazaspiro[4,5]decan-8-carboxylic acid (4-ethoxy-benzol)amide]",–,–,44,47
"CCCCN1C(=O)C(CCSC)NC12CCN(C(=O)Nc1ccc(Cl)c(C(F)(F)F)c1)CC2 (stereo not drawn) [Example 227, 1-Butyl-3-(2-methylsulfanylethyl)-2-oxo-1,4,8-triazaspiro[4,5]decan-8-carboxylic acid (4-chloro-3-trifluoromethylbenzol)amide]",–,–,85,58
"O=C(Nc1cc(F)ccc1F)N1CCC2(CC1)NC(Cc1ccccc1)C(=O)N2Cc1ccccc1F (stereo not drawn) [Example 230, 3-Benzyl-1-(2-fluorobenzyl)-2-oxo-1,4,8-triazaspiro[4,5]decan-8-carboxylic acid (2,5-difluorobenzol)amide]",–,–,78,63
"O=C(NCc1ccc(Cl)c(Cl)c1)N1CCC2(CC1)NC(Cc1ccccc1)C(=O)N2Cc1ccccc1F (stereo not drawn) [Example 233, 3-Benzyl-1-(2-fluorobenzyl)-2-oxo-1,4,8-triazaspiro[4,5]decan-8-carboxylic acid 3,4-dichlorobenzylamide]",–,44,85,–
"CSCCC1NC2(CCN(C(=O)Nc3cccc(C(C)=O)c3)CC2)N(Cc2ccccc2C#N)C1=O (stereo not drawn) [Example 234, 1-(2-Cyanobenzyl)-3-(2-methylsulfanylethyl)-2-oxo-1,4,8-triazaspiro[4,5]decan-8-carboxylic acid (3-acetylbenzol)amide]",–,–,31,45
"CCOC(=O)c1ccc(NC(=O)N2CCC3(CC2)NC(Cc2ccccc2)C(=O)N3Cc2ccccc2F)cc1 (stereo not drawn) [Example 235, Ethyl 4-{[3-benzyl-1-(2-fluorobenzyl)-2-oxo-1,4,8-triazaspiro[4,5]decan-8-carbonyl]-amino}-benzoate]",–,65,77,–
"CSCCC1NC2(CCN(C(=O)Nc3ccc(OC(F)(F)F)cc3)CC2)N(Cc2ccc(F)cc2)C1=O (stereo not drawn) [Example 237, 1-(4-Fluorobenzyl)-3-(2-methylsulfanylethyl)-2-oxo-1,4,8-triazaspiro[4,5]decan-8-carboxylic acid (4-trifluoromethoxy-benzol)amide]",–,–,87,39
"O=C(NC1CCCCC1)N1CCC2(CC1)NC(Cc1ccccc1)C(=O)N2Cc1ccccc1F (stereo not drawn) [Example 238, 3-Benzyl-1-(2-fluorobenzyl)-2-oxo-1,4,8-triazaspiro[4,5]decan-8-carboxylic acid cyclohexylamide]",–,43,73,–
"CSCCC1NC2(CCN(C(=O)NCCc3ccccc3)CC2)N(Cc2ccc(F)cc2)C1=O (stereo not drawn) [Example 239, 1-(4-Fluorobenzyl)-3-(2-methylsulfanylethyl)-2-oxo-1,4,8-triazaspiro[4,5]decan-8-carboxylic acid phenethylamide]",–,36,69,–
"CSCCC1NC2(CCN(C(=O)Nc3cccc(F)c3)CC2)N(Cc2ccc3ccccc3c2)C1=O (stereo not drawn) [Example 240, 3-(2-Methylsulfanylethyl)-1-naphthalin-2-ylmethyl-2-oxo-1,4,8-triazaspiro[4,5]decan-8-carboxylic acid (3-fluorobenzol)amide]",–,–,78,63
"COC(=O)c1ccc(CN2C(=O)C(C(C)C)NC23CCN(C(=O)Nc2ccc(Cl)c(C(F)(F)F)c2)CC3)cc1 (stereo not drawn) [Example 241, Methyl 4-[8-(4-chloro-3-trifluoromethylbenzolcarbamoyl)-3-isopropyl-2-oxo-1,4,8-triazaspiro[4,5]dec-1-ylmethyl]-benzoate]",–,–,78,31
"COc1ccc(OC)c(NC(=O)N2CCC3(CC2)NC(CCSC)C(=O)N3Cc2cccc(C#N)c2)c1 (stereo not drawn) [Example 242, 1-(3-Cyanobenzyl)-3-(2-methylsulfanylethyl)-2-oxo-1,4,8-triazaspiro[4,5]decan-8-carboxylic acid (2,5-dimethoxy-benzol)amide]",–,–,46,30
"CCOc1ccc(NC(=O)N2CCC3(CC2)NC(CCSC)C(=O)N3Cc2ccc(F)cc2)cc1 (stereo not drawn) [Example 243, 1-(4-Fluorobenzyl)-3-(2-methylsulfanylethyl)-2-oxo-1,4,8-triazaspiro[4,5]decan-8-carboxylic acid (4-ethoxy-benzol)amide]",–,–,48,40
"Ethyl[3-b-8-(3-fluorobenzolcarbamoyl)-2-oxo-1,4,8-triazaspiro[4,5]dec-1-yl]-acetate [Example 245]",–,–,31,51
